Like-named read-outs stand apart in the source and are kept apart here. Values belong to the compound of their own block, whether it stands above or below them.
Legend:
[1] = target: T1, AaBioW (pimeloyl-CoA synthetase BioW) (Aquifex aeolicus, UniProt O67575); test: TLC adenylation/proofreading assay; type: biochemical
[2] = target: T1, AaBioW (pimeloyl-CoA synthetase BioW); test: ITC; type: binding
[3] = target: T1, AaBioW (pimeloyl-CoA synthetase BioW); test: co-crystal structure with CoA; type: binding
[4] = target: T1, AaBioW (pimeloyl-CoA synthetase BioW); test: TLC proofreading assay; type: biochemical
[5] = target: T1, AaBioW (pimeloyl-CoA synthetase BioW); test: ITC; type: binding; remark: listed apart in the source

T1 sequence (O67575 whole entry): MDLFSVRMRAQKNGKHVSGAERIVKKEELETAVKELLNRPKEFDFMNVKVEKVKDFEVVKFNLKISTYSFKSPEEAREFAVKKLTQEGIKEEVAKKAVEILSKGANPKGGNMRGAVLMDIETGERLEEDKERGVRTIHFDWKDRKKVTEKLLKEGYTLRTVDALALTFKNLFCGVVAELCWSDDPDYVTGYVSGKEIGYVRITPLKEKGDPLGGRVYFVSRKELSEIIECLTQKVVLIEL

Compound: O=C(O)CCCCCCC(=O)O [compound 5, suberate]
TLC adenylation/proofreading assay [1]: adenylated intermediates can be observed for the cognate C7, as well as for the noncognate C6 and C8 substrates

Compound: Nc1ncnc2c1ncn2[C@@H]1O[C@H](COP(=O)(O)OP(=O)(O)OP(=O)(O)O)[C@@H](O)[C@H]1O [ATP]
Kd [2]: 13 ± 3 µM

co-crystal structure with CoA (2.25 Å) [3]: AaBioW with CoA–AMP (5TVA)
Compound: Nc1ncnc2c1ncn2[C@@H]1O[C@H](COP(=O)(O)O)[C@@H](O)[C@H]1O [AMP]

Compound: O=C(O)CCCCC(=O)O [compound 4, adipate]
TLC adenylation/proofreading assay [1]: adenylated intermediates can be observed for the cognate C7, as well as for the noncognate C6 and C8 substrates

Compound: O=C(O)CCCC(=O)O [compound 3, glutarate]
TLC proofreading assay (AMP accumulation) [4]: reactions carried out using glutarate in the absence of CoA resulted only in the accumulation of AMP

Kd [5]: 14 ± 2.5 µM
Compound: CC(C)(COP(=O)(O)OP(=O)(O)OC[C@H]1O[C@@H](n2cnc3c(N)ncnc32)[C@H](O)[C@@H]1OP(=O)(O)O)[C@@H](O)C(=O)NCCC(=O)NCCS [CoA]

Source: PMC7310518 (Nature chemical biology, 2017)
